Each structure is given as a SMILES string.

The test system of one experiment is Staphylococcus aureus. Kind of experiment: Growth inhibition of Staphylococcus aureus. The experiment is classed as functional.
The next experiment has as its system Escherichia coli. Kind of experiment: Growth inhibition of Escherichia coli. The class given is functional.
The nature of experiment [1]: Activity of bacterial APH(3')-3a kinase.
Experiment [2] is described as follows: Ratio of Kcat/Km of bacterial APH(3')-3a kinase.
Experiment [3] is described as follows: Activity of bacterial APH(3')-3a kinase assessed high affinity phosphorylation.
Experiment [4] can be described thus: Activity of bacterial APH(3')-3a kinase assessed low affinity phosphorylation.
Experiment [5] in a line: Ratio of Kcat/Km of bacterial APH(3')-3a kinase-mediated high affinity phosphorylation.
A short description of experiment [6]: Ratio of Kcat/Km of bacterial APH(3')-3a kinase-mediated low affinity phosphorylation.

A word on the MIC: it is the least concentration at which growth counts as inhibited. A lower MIC goes with inhibition by little substance. For `N[C@H]1[C@H]2O[C@H]3[C@@H](O)[C@H](O[C@@H]4[C@@H](OCCCCCNC[C@H](O2)[C@@H](O)[C@@H]1O)[C@H](N)C[C@H](N)[C@H]4O[C@H]1O[C@H](CO)[C@@H](O)[C@H](O)[C@H]1N)O[C@@H]3CO`, the results for the minimal inhibitory concentration (MIC) in the experiment with Staphylococcus aureus and with Escherichia coli were greater than 40 µg/mL and greater than 10 µg/mL, respectively.

Broadly, the Km is the concentration of substrate that gives half-maximal velocity. As a reminder, the Vmax is the rate approached at saturating substrate. As a reminder, the kcat is the maximal rate divided by the concentration of active sites. For orientation: kcat/Km means the turnover number divided by the Michaelis constant. With `N[C@H]1[C@H]2O[C@H]3[C@@H](O)[C@H](O[C@@H]4[C@@H](OCCCCC(=O)NC[C@H](O2)[C@@H](O)[C@@H]1O)[C@H](N)C[C@H](N)[C@H]4O[C@H]1O[C@H](CO)[C@@H](O)[C@H](O)[C@H]1N)O[C@@H]3CO`, in experiment [1], the Michaelis-Menten constant (Km) stood at 21.8 µM, the Vmax amounted to 0.07 µM/s and the turnover number (kcat) came out at 0.073 s⁻¹. Besides, the specificity constant (kcat/Km) in experiment [2] was 3.35 10^3/M/s. The compound also displayed a minimal inhibitory concentration (MIC) in the experiment on Staphylococcus aureus greater than 40 µg/mL. In addition, the MIC against Escherichia coli is greater than 10 µg/mL.

With `NC[C@@H]1O[C@H](O[C@H]2[C@@H](O)[C@H](O[C@@H]3[C@@H](O)[C@H](N)C[C@H](N)[C@H]3O[C@H]3O[C@H](CO)[C@@H](O)[C@H](O)[C@H]3N)O[C@@H]2CO)[C@H](N)[C@@H](O)[C@@H]1O`, in experiment [3], the Km stood at 16.9 µM, the Vmax is 0.183 µM/s and the kcat was 0.19 s⁻¹. In experiment [4], the Km was 51.1 µM, the maximal velocity (Vmax) was found to be 0.292 µM/s and the kcat was found to be 0.304 s⁻¹. Also, the catalytic efficiency (kcat/Km) in experiment [5] is 1.12 10^4/M/s. Moreover, the kcat/Km in experiment [6] was 5.95 10^3/M/s.

The record behind these values is ChEMBL document CHEMBL1139916, “6-hydroxy to 6'''-amino tethered ring-to-ring macrocyclic aminoglycosides as probes for APH(3')-IIIa kinase” (2007).
